Experimental data published in patent US8575170B2, “Flurbiprofen analogs and methods of use in treating cancer” (The Regents of the Unversity of Colorado, a body corporate, priority 2010, dated 2013).

Key:
Assay type in all cases: cell-based
[1] = tested on: CaLu3; assay: MTT cell viability, CaLu3; conditions: Homo sapiens, Calu-3, 96 h; Adenocarcinoma lung cell line CaLu3; 4 days incubation
Procedure: (§1) The ability of the flurbiprofen analog compounds of the invention to inhibit cancer cell growth and survival (viability) in a variety of cancer lines was examined in a standard MTT assay for cell viability, as detailed in Example 2.
(§2) The studies reported in Tables 1-3 above were carried out by incubating the cells in the test compound for four days, under standard cell-culture conditions, and measuring cell survival on day 5 (see Example 2).
(§3) Cell growth and survival following treatment with N—[(S)-2-Fluoro-α-methyl-4-biphenylacetyl]-[L-(4-phenylphenyl)alanine]-N-(2,2,6,6-tetramethyl-4-piperidinyl)amide (GCBH-110=B1031; (S)-Fmba-L-Bip-Atmp) were measured by a rapid colorimetric assay based on the tetrazolium salt MTT (3-(4,5-dimethylthiazol-2-yl)-2,5-diphenyl tetrazolium bromide) (Mosmann, J. Immunol. Methods 65: 55-63, 1983, with minor modifications).
(§4) Briefly, approximately 1,000-5,000 cancer cells from 15 different cancer cells lines were plated in 100 μL of growth medium in 96-well flat-bottomed microtiter plates. Cells were incubated overnight to allow recovery. Compounds to be tested were added to the cells in triplicate in a range of concentrations and the cells were incubated at 37° C., 5% CO2, with 100% humidity. Control cells were treated in the same way without antagonists. […] Absorbance was immediately determined using a scanning multiwell plate reader.

[2] = tested on: H1648; assay: MTT cell viability, H1648; conditions: Homo sapiens, NCI-H1648, 96 h; SCLC lung cell line H1648; 4 days incubation
Procedure: as §1, §2, §3, §4

[3] = tested on: Panc-1005; assay: MTT cell viability, Panc-1005; conditions: Homo sapiens, Panc1005, 96 h; Pancreatic cancer cells Panc-1005; 4 days incubation
Text: as §1
(§5) Similar results were obtained for the effect of the B1031 compound on the 14 pancreatic tumor cells lines shown in Table 3 below, where the dose dependent effect of the compound on survival of the pancreatic cancer cell lines is shown in FIG. 5.
as §2, §3
(§6) Briefly, approximately 1,000-5,000 cancer cells from 15 different cancer cells lines were plated in 100 μL of growth medium in 96-well flat-bottomed microtiter plates. Cells were incubated overnight to allow recovery. […] Absorbance was immediately determined using a scanning multiwell plate reader.

[4] = tested on: H865; assay: MTT cell viability, H865; conditions: 96 h; SCLC lung cell line H865; 4 days incubation
Procedure: as §1, §2, §3, §4

[5] = tested on: H322C1; assay: MTT cell viability, H322C1; conditions: 96 h; Adenocarcinoma lung cell line H322C1; 4 days incubation
Procedure: as §1, §2, §3, §4

[6] = tested on: H441; assay: MTT cell viability, H441; conditions: Homo sapiens, NCI-H441, 96 h; Adenocarcinoma lung cell line H441; 4 days incubation
Procedure: as §1, §2, §3, §4

[7] = tested on: L36; assay: MTT cell viability, L36; conditions: Pancreatic cancer cell, 96 h; Pancreatic cancer cells L36; 4 days incubation
Text: as §1, §5, §2, §3, §6

[8] = tested on: UMSCC22B; assay: MTT cell viability, UMSCC22B; conditions: Homo sapiens; Head and neck cancer cell line UMSCC22B
Procedure: as §1
A similar study was conducted on 14 […] cancer cell lines, identified in Table 2.
as §3
Briefly, approximately 1,000-5,000 cancer cells from 15 different cancer cells lines were plated in 100 μL of growth medium in 96-well flat-bottomed microtiter plates. Cells were incubated overnight to allow recovery. Compounds to be tested were added to the cells in triplicate in a range of concentrations and the cells were incubated at 37° C., 5% CO2, with 100% humidity. Control cells were treated in the same way without antagonists. […] Plates were incubated for 4 days, allowing sufficient time for cell replication and compound-induced cell death to occur. […] Absorbance was immediately determined using a scanning multiwell plate reader. […]

[9] = tested on: Panc-203; assay: MTT cell viability, Panc-203; conditions: Homo sapiens, Panc203, 96 h; Pancreatic cancer cells Panc-203; 4 days incubation
Text: as §1, §5, §2, §3, §6

[10] = tested on: CaLu6; assay: MTT cell viability, CaLu6; conditions: Homo sapiens, Calu-6, 96 h; Adenocarcinoma lung cell line CaLu6; 4 days incubation
Procedure: as §1, §2, §3, §4

[11] = tested on: Aspc-1; assay: MTT cell viability, Aspc-1; conditions: Homo sapiens, ASPC1, 96 h; Pancreatic cancer cells Aspc-1; 4 days incubation
Text: as §1, §5, §2, §3, §6

[12] = tested on: H3225a; assay: MTT cell viability, H3225a; conditions: 96 h; Adenocarcinoma lung cell line H3225a; 4 days incubation
Procedure: as §1, §2, §3, §4

[13] = tested on: Panc-327; assay: MTT cell viability, Panc-327; conditions: Pancreatic cancer cell, 96 h; Pancreatic cancer cells Panc-327; 4 days incubation
Text: as §1, §5, §2, §3, §6

[14] = tested on: H3225; assay: MTT cell viability, H3225; conditions: 96 h; Adenocarcinoma lung cell line H3225; 4 days incubation
Procedure: as §1, §2, §3, §4

[15] = tested on: H1435a; assay: MTT cell viability, H1435a; conditions: 96 h; Adenocarcinoma lung cell line H1435a; 4 days incubation
Procedure: as §1, §2, §3, §4

[16] = tested on: H290; assay: MTT cell viability, H290; conditions: NCI-H290, 96 h; Mesothelioma lung cell line H290; 4 days incubation
Procedure: as §1, §2, §3, §4

[17] = tested on: H460; assay: MTT cell viability, H460; conditions: Homo sapiens, NCI-H460, 96 h; Large Cell lung cell line H460; 4 days incubation
Procedure: as §1, §2, §3, §4

IC50 [1]: 1300 nM
IC50 [2]: 280 nM
IC50 [3]: 700 nM
IC50 [4]: 360 nM
IC50 [5]: 130 nM
IC50 [6]: 1600 nM
IC50 [9]: 700 nM
IC50 [10]: 340 nM
IC50 [11]: 500 nM
IC50 [12]: 450 nM
IC50 [13]: 670 nM
IC50 [14]: 1100 nM
IC50 [15]: 110 nM
IC50 [16]: 1300 nM
IC50 [17]: 480 nM
SMILES: C[C@H](C(=O)N[C@@H](Cc1ccc(-c2ccccc2)cc1)C(=O)NC1CC(C)(C)NC(C)(C)C1)c1ccc(-c2ccccc2)c(F)c1 [GCBH-110, N—[(S)-2-Fluoro-α-methyl-4-biphenylacetyl]-[L-(4-phenylphenyl)alanine]-N-(2,2,6,6-tetramethyl-4-piperidinyl)amide]
IC50 [7]: 600 nM
IC50 [8]: 300 nM
